Assay results published in US20240158370A1, “CK1 alpha AND DUAL CK1 alpha / GSPT1 DEGRADING COMPOUNDS” (Innovo Therapeutics, Inc., priority 2022, published 2024).

Assays:
GSPT1 = GSPT1 (Homo sapiens, UniProt P15170+Q96SW2); test: HiBiT degradation assay, GSPT1, Procedure A; assay type: cell-based; design: HiBit-GSPT1 KI HEK293(LgBit) Cells; host or cells: HEK293(LgBit) knock-in cells; details: six hours incubation
In short: (§1)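 10-pt dose response, 10–0.005 μM, 0.1% DMSO; cells 1×10^6/ml in DMEM/10% FBS, 6 h, 37° C; HiBiT lytic detection, luminescence; DC50 + Ymin by 4-parameter fit.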

CK1α = target: T1, CK1α (Homo sapiens, UniProt P48729+Q96SW2); test: HiBiT degradation assay, CK1α, Procedure A; assay type: cell-based; details: six hours incubation
T1 construct: CSNK1A1-HiBit KI HEK293(LgBit) Cells; host or cells: HEK293(LgBit) knock-in cells
In short: as §1

Chain of GSPT1 (P15170 whole entry): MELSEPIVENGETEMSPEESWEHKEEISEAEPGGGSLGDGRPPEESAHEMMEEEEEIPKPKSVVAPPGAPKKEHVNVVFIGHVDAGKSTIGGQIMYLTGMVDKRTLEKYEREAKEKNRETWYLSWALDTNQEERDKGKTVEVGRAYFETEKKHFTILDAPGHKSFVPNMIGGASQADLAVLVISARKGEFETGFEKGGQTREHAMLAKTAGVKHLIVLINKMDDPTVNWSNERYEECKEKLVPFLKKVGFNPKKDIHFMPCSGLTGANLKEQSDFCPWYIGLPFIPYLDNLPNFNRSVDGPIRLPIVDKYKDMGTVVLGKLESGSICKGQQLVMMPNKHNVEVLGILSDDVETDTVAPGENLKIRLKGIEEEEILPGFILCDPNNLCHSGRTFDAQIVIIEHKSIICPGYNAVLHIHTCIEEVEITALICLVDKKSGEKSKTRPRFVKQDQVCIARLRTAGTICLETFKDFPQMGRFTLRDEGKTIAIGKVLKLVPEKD
Chain of GSPT1 (Q96SW2 whole entry): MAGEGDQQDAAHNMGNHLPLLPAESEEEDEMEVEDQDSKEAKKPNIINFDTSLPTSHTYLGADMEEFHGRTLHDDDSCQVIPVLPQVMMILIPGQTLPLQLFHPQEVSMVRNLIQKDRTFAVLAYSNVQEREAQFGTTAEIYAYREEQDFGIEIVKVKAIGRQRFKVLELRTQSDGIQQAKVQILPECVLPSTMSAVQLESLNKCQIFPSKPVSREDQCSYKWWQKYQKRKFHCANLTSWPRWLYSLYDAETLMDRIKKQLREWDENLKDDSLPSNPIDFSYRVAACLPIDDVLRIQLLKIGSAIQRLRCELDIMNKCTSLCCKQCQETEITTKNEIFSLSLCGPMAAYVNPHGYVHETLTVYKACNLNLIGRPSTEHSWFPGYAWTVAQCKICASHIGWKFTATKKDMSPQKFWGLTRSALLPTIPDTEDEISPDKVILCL
Chain of GSPT1 (Q16531 whole entry partner): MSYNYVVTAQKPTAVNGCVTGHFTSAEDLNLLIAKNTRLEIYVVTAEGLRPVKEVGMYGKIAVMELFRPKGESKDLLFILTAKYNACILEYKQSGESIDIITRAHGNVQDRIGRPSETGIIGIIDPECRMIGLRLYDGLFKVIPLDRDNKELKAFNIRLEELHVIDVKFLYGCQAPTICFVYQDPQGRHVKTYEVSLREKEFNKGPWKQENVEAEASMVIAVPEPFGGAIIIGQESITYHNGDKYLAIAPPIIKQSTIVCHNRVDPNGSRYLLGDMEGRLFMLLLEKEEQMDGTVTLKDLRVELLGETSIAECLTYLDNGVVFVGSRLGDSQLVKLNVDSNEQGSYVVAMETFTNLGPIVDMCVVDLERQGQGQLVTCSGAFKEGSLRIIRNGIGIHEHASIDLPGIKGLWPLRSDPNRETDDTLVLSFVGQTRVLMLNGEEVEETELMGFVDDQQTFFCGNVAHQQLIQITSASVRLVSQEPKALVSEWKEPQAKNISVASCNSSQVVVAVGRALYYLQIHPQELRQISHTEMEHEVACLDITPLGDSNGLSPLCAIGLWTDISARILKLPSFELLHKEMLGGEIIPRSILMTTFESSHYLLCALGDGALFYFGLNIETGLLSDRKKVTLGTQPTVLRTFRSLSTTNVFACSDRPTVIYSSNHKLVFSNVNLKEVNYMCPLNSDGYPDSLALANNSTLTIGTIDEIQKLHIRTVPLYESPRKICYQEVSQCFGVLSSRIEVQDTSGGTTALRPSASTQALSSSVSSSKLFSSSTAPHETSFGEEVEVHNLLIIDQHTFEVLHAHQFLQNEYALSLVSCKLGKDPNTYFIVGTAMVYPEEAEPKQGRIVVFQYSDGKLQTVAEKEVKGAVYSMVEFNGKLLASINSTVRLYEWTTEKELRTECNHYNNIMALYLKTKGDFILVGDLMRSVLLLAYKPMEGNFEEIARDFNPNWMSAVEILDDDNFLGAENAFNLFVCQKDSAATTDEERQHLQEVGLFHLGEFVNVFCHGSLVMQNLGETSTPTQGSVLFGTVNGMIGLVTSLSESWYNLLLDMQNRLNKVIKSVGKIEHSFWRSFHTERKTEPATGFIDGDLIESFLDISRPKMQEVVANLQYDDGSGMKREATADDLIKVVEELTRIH
T1 sequence (P48729 whole entry): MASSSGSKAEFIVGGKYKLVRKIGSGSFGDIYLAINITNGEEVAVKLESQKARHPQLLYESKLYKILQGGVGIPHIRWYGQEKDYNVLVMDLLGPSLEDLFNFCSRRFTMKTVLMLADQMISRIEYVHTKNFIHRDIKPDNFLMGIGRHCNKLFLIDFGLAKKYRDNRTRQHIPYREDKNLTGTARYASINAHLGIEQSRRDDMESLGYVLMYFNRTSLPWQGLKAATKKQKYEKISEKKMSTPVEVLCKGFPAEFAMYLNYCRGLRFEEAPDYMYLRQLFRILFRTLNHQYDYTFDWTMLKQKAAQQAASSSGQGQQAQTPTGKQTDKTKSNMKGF
T1 sequence (Q96SW2 whole entry): as the sequence (Q96SW2 whole entry) above
T1 sequence (Q16531 whole entry partner): as the sequence (Q16531 whole entry partner) above

| DC50 (GSPT1) [nM] | GSPT1 Ymin (GSPT1) | CK1α Ymin (CK1α) | DC50 (CK1α) [nM] | SMILES |
| --- | --- | --- | --- | --- |
| < 25 | F (F = >75-100% remaining) | E (E = >25-75% remaining) | < 25 | Cn1cnc(-c2ccc3c(c2)CN(C2CCC(=O)NC2=O)C3=O)c1-c1cccc2ccccc12 (stereo not shown) [Example 255] |
| < 25 | E (E = >25-75% remaining) | C (C = 0-10% remaining) | < 25 | Cn1cnc(-c2ccc3c(c2)CN(C2CCC(=O)NC2=O)C3=O)c1-c1ccc2ccccc2c1 (stereo not shown) [Example 256] |
| ≥ 25 | F (F = >75-100% remaining) | D (D = >10- 25% remaining) | < 25 | Cn1cnc(-c2ccc3c(c2)CN(C2CCC(=O)NC2=O)C3=O)c1-c1ccc(F)c(Cl)c1 (stereo not shown) [Example 257] |
| ≥ 25 | E (E = >25-75% remaining) | D (D = >10- 25% remaining) | < 25 | Cn1cnc(-c2ccc3c(c2)CN(C2CCC(=O)NC2=O)C3=O)c1-c1ccc(Cl)cc1F (stereo not shown) [Example 258] |
| < 25 | E (E = >25-75% remaining) | D (D = >10- 25% remaining) | < 25 | Cn1cnc(-c2ccc3c(c2)CN(C2CCC(=O)NC2=O)C3=O)c1-c1ccc(F)cc1Cl (stereo not shown) [Example 259] |
| < 25 | F (F = >75-100% remaining) | D (D = >10- 25% remaining) | < 25 | Cn1cnc(-c2ccc3c(c2)CN(C2CCC(=O)NC2=O)C3=O)c1-c1ccc(Cl)c(F)c1 (stereo not shown) [Example 260] |
| ≥ 25 | F (F = >75-100% remaining) | E (E = >25-75% remaining) | < 25 | Cn1cnc(-c2ccc3c(c2)CN(C2CCC(=O)NC2=O)C3=O)c1-c1cc(Cl)ccc1F (stereo not shown) [Example 261] |
| ≥ 25 | F (F = >75-100% remaining) | D (D = >10- 25% remaining) | < 25 | Cn1cnc(-c2ccc3c(c2)CN(C2CCC(=O)NC2=O)C3=O)c1-c1cccc(F)c1Cl (stereo not shown) [Example 262] |
| < 25 | F (F = >75-100% remaining) | E (E = >25-75% remaining) | ≥ 25 | COc1cc(C#N)ccc1-c1c(-c2ccc3c(c2)CN(C2CCC(=O)NC2=O)C3=O)ncn1C (stereo not shown) [Example 263] |
| < 25 | E (E = >25-75% remaining) | E (E = >25-75% remaining) | ≥ 25 | CN1Cc2cccc(-c3c(-c4ccc5c(c4)CN(C4CCC(=O)NC4=O)C5=O)ncn3C)c2C1 (stereo not shown) [Example 264] |
| ≥ 25 | F (F = >75-100% remaining) | D (D = >10- 25% remaining) | < 25 | CC(C)Cc1ccc(-c2c(-c3ccc4c(c3)CN(C3CCC(=O)NC3=O)C4=O)ncn2C)cc1 (stereo not shown) [Example 265] |
| < 25 | F (F = >75-100% remaining) | E (E = >25-75% remaining) | ≥ 25 | Cn1cnc(-c2ccc3c(c2)CN(C2CCC(=O)NC2=O)C3=O)c1-c1cccc(C(C)(C)C)c1 (stereo not shown) [Example 266] |
| ≥ 25 | F (F = >75-100% remaining) | C (C = 0-10% remaining) | ≥ 25 | CNC(=O)c1ccc(-c2c(-c3ccc4c(c3)CN(C3CCC(=O)NC3=O)C4=O)ncn2C)cc1 (stereo not shown) [Example 267] |
| ≥ 25 | F (F = >75-100% remaining) | D (D = >10- 25% remaining) | ≥ 25 | CNC(=O)c1cccc(-c2c(-c3ccc4c(c3)CN(C3CCC(=O)NC3=O)C4=O)ncn2C)c1 (stereo not shown) [Example 268] |

Further lines, the molecule ahead of its results:

| SMILES | DC50 (GSPT1) [nM] | GSPT1 Ymin (GSPT1) | CK1α Ymin (CK1α) | DC50 (CK1α) [nM] |
| --- | --- | --- | --- | --- |
| Cc1ccc(-c2c(-c3ccc4c(c3)CN(C3CCC(=O)NC3=O)C4=O)ncn2C)cc1F (stereo not shown) [Example 240] | < 25 | E (E = >25-75% remaining) | D (D = >10- 25% remaining) | < 25 |
| Cc1cc(-c2c(-c3ccc4c(c3)CN(C3CCC(=O)NC3=O)C4=O)ncn2C)c(C)s1 (stereo not shown) [Example 241] | ≥ 25 | F (F = >75-100% remaining) | D (D = >10- 25% remaining) | < 25 |
| Cn1cnc(-c2ccc3c(c2)CN(C2CCC(=O)NC2=O)C3=O)c1-c1cccc(F)c1F (stereo not shown) [Example 242] | < 25 | F (F = >75-100% remaining) | D (D = >10- 25% remaining) | < 25 |
| Cc1ccc(C#N)cc1-c1c(-c2ccc3c(c2)CN(C2CCC(=O)NC2=O)C3=O)ncn1C (stereo not shown) [Example 243] | ≥ 25 | F (F = >75-100% remaining) | E (E = >25-75% remaining) | ≥ 25 |
| Cc1ccc(-c2c(-c3ccc4c(c3)CN(C3CCC(=O)NC3=O)C4=O)ncn2C)c(C#N)c1 (stereo not shown) [Example 244] | ≥ 25 | F (F = >75-100% remaining) | D (D = >10- 25% remaining) | < 25 |
| Cn1cnc(-c2ccc3c(c2)CN(C2CCC(=O)NC2=O)C3=O)c1-c1ccc2c(c1)OCC2 (stereo not shown) [Example 245] | ≥ 25 | F (F = >75-100% remaining) | E (E = >25-75% remaining) | < 25 |
| CC(C)c1ccc(-c2c(-c3ccc4c(c3)CN(C3CCC(=O)NC3=O)C4=O)ncn2C)cc1 (stereo not shown) [Example 246] | ≥ 25 | F (F = >75-100% remaining) | E (E = >25-75% remaining) | < 25 |
| Cn1cnc(-c2ccc3c(c2)CN(C2CCC(=O)NC2=O)C3=O)c1-c1cccc(C#N)c1F (stereo not shown) [Example 247] | ≥ 25 | – | E (E = >25-75% remaining) | < 25 |
| Cn1cnc(-c2ccc3c(c2)CN(C2CCC(=O)NC2=O)C3=O)c1-c1cccc(C(N)=O)c1 (stereo not shown) [Example 248] | ≥ 25 | E (E = >25-75% remaining) | D (D = >10- 25% remaining) | ≥ 25 |
| COc1ccc(C)cc1-c1c(-c2ccc3c(c2)CN(C2CCC(=O)NC2=O)C3=O)ncn1C (stereo not shown) [Example 249] | ≥ 25 | F (F = >75-100% remaining) | D (D = >10- 25% remaining) | < 25 |
| COCc1ccc(-c2c(-c3ccc4c(c3)CN(C3CCC(=O)NC3=O)C4=O)ncn2C)cc1 (stereo not shown) [Example 250] | < 25 | E (E = >25-75% remaining) | C (C = 0-10% remaining) | < 25 |
| COc1cc(-c2c(-c3ccc4c(c3)CN(C3CCC(=O)NC3=O)C4=O)ncn2C)ccc1C (stereo not shown) [Example 251] | ≥ 25 | F (F = >75-100% remaining) | D (D = >10- 25% remaining) | < 25 |
| Cc1ccc(-c2c(-c3ccc4c(c3)CN(C3CCC(=O)NC3=O)C4=O)ncn2C)cc1CO (stereo not shown) [Example 252] | ≥ 25 | E (E = >25-75% remaining) | D (D = >10- 25% remaining) | < 25 |
| COc1ccc(-c2c(-c3ccc4c(c3)CN(C3CCC(=O)NC3=O)C4=O)ncn2C)cc1O (stereo not shown) [Example 253] | < 25 | D (D = >10- 25% remaining) | C (C = 0-10% remaining) | < 25 |
| Cc1cc(Cl)ccc1-c1c(-c2ccc3c(c2)CN(C2CCC(=O)NC2=O)C3=O)ncn1C (stereo not shown) [Example 254] | < 25 | E (E = >25-75% remaining) | E (E = >25-75% remaining) | < 25 |
